We go through 5 molecules from US5599953A, “C-glycoside analogues of N-(4-hydroxyphenyl)retinamide-O-glucuronide” (The Ohio State Research Foundation, priority 1995, dated 1997).

Data set [1] can be described thus: Acid stability, 0.1N HCl at 37° C. for two hours. Type of data set: physicochemical. The procedure:
Similarly, 1-(D-glucopyranosyluronosyl) retinamide and RAG were treated with 0.1N HCl at 37° C. for two hours.

The target in another data set is T1, β-glucuronidase (Homo sapiens, UniProt P08236).
T1 sequence (P08236 23-651): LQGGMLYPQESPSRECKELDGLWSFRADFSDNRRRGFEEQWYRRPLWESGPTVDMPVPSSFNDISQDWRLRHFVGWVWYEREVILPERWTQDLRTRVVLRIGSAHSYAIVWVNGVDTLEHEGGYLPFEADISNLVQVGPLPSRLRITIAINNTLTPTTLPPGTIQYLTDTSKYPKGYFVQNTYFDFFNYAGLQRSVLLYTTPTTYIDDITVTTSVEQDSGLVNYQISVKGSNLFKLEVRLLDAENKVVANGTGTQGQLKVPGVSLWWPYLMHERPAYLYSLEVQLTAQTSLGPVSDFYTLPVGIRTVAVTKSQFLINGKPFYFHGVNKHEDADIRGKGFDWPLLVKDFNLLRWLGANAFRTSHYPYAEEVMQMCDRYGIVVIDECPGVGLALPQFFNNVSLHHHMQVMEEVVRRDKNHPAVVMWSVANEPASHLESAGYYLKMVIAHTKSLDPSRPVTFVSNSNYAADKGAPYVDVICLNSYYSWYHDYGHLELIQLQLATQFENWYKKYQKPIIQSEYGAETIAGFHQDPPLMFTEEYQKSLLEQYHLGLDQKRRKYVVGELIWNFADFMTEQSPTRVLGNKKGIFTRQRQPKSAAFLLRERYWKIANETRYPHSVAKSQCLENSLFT
Put plainly: Stability toward β-glucuronidase mediated hydrolysis. The data set is classed as in vitro ADME. As to conditions: within twenty minutes. The protocol: Similarly 1-(D-glucopyranosyluronosyl) retinamide and RAG were evaluated for their stability toward β-glucuronidase medicated hydrolysis under the same conditions as described above.

Data set [2] deals with DMBA-Induced Rat Mammary Tumors. Description: Effect on progression of DMBA-induced rat mammary tumors. The data set is classed as in vivo. The note with it: 1 mmol/Kg in diet; for tumor latency: 15 mg DMBA oral; for tumor incidents / tumor number/rat: 110 days post intubation. From the text: The control rats received DMBA intubation only and AIN-76A rat chow.
In data set [3] the target is T2, human retinoic acid receptor γ (Homo sapiens, UniProt P13631).
T2 construct: made in house
T2 sequence (P13631 1-454): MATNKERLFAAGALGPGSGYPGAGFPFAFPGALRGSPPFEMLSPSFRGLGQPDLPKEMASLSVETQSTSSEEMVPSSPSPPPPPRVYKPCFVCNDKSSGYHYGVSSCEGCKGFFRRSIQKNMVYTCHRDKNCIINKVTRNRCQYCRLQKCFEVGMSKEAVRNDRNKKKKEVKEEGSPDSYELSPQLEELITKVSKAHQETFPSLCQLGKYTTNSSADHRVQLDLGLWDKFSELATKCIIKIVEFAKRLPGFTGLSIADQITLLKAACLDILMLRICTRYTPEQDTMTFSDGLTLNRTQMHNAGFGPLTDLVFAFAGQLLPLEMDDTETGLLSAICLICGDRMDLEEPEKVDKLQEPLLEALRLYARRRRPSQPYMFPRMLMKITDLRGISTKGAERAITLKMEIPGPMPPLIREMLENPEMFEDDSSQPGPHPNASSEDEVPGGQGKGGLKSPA
Description: Competition binding / retinoic acid binding, human retinoic acid receptor γ/BCV (FIG. 1). The note with it: 1.3 nM [3H]-retinoic acid.

The subject of the next data set is MCF-7 cells. Put plainly: Growth inhibition of MCF-7 human mammary tumor cells. Type of data set: cell-based. The note with it: Homo sapiens, MCF7, 168 h, 7 days, read-out: ED50 for growth inhibition of MCF-7 cells. The protocol: The antiproliferative activity of the drugs in MCF-7 human mammary tumor cell culture models were determined.
The MCF-7 cells were obtained originally from the Michigan Cancer Foundation. The cells were routinely grown as monolayers in T-25 plastic tissue culture flasks from Falcon, in Oxnard, Calif. containing 5.0 mL of B-10 medium consisting of Minimum Essential Medium (MEM, Earle's Base) supplemented with 1.0 mM MEM non-essential amino acid, 2.0 mM 1-glutamine,10% fetal bovine serum (FBS), and antibiotics. Culture conditions included a humidified atmosphere of 5% CO2 at 37° C. One-half of the medium was replenished twice a week. Cells were harvested by trypsinization upon confluency. All variables were evaluated in triplicate.
For the growth inhibition assay the MCF-7 cells were plated in 24-well plates at a density of 1.5×10^4 cells/cm^2. […] Control cultures were treated with an equivalent volume of absolute ethanol. On day 7 the cells were harvested by trypsinization and viability was assessed by trypan blue exclusion according to Ueda, H. et al. Cancer 1980, 46, 2203-2209. Total cell counts were obtained using a hemocytometer as well as a the Coulter Counter.

The target in another data set is T3, mRARγ (Mus musculus, UniProt P18911).
T3 construct: made in house; host or cells: Spodoptera frugiperda insect cells, baculovirus (whole cell extract)
T3 sequence (P18911 1-458): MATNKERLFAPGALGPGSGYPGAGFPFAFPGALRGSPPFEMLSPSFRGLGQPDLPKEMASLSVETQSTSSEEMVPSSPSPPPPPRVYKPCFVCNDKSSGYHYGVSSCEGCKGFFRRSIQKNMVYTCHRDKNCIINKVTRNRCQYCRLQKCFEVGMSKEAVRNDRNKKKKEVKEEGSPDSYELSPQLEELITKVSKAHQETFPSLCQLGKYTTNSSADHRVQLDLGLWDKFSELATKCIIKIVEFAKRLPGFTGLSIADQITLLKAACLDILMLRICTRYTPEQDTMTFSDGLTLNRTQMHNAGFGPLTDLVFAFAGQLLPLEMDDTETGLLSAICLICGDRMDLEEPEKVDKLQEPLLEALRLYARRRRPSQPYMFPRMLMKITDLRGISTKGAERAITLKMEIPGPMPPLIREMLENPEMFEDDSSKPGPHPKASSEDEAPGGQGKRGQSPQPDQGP
Description: Drug competition with (3H)retinoic acid binding, mRARγ. The note with it: read-out: percent reduction of binding of the (3H)retinoic acid, mRARγ; 1 μM drug; 5 nM [3H]RA.

The target in a further data set is T4, mRARα (Mus musculus, UniProt P11416).
T4 construct: made in house; host or cells: Spodoptera frugiperda insect cells, baculovirus (whole cell extract)
T4 sequence (P11416 1-462): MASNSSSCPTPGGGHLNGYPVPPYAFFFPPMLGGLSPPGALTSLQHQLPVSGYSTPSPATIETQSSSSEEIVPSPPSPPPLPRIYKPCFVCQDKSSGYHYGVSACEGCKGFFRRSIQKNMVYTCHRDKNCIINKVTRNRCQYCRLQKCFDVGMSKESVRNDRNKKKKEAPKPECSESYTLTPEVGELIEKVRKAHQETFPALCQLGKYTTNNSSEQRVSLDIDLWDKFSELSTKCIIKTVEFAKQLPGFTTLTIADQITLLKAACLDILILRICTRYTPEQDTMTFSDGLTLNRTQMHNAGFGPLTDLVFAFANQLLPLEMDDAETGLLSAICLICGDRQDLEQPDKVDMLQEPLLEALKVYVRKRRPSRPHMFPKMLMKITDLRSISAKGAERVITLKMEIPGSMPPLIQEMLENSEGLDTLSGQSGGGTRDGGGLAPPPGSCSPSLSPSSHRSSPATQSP
Description: Drug competition with (3H)retinoic acid binding, mRARα. As to conditions: read-out: percent reduction of binding of the (3H)retinoic acid, mRARα.

Data set [4] has as its system cultured human breast cancer cells. The note with it: Bhatnagar et al.; cited from earlier work.
The subject of data set [5] is carcinogen-induced rat mammary tumors. As to conditions: cited from earlier work.
For a further data set, the system named is cancer. As to conditions: literature; cited from earlier work.
In a further data set the target is T5, mRARβ (Mus musculus, UniProt P22605).
T5 construct: made in house; host or cells: Spodoptera frugiperda insect cells, baculovirus (whole cell extract)
T5 sequence (P22605 1-448 isoform P22605-3): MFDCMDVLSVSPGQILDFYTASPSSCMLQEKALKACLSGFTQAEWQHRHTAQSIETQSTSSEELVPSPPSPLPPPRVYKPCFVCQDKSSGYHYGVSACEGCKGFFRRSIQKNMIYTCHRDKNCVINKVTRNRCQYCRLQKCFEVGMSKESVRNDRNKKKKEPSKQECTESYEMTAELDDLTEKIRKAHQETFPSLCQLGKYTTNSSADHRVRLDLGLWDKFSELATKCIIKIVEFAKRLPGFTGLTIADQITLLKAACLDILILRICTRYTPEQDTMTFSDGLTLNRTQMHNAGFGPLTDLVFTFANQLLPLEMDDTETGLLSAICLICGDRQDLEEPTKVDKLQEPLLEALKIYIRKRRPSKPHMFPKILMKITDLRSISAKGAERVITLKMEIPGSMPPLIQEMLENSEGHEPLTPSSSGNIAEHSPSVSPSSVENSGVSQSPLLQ
Description: Drug competition with (3H)retinoic acid binding, mRARβ. The note with it: read-out: percent reduction of binding of the (3H)retinoic acid, mRARβ; 1 μM drug; 5 nM [3H]RA.

Data set [6] deals with hamster tracheal in vitamin A deficient epithelial tissue. The note with it: Newton et al.; cited from earlier work.
Substrate in data set [7]: CC1=C(/C=C/C(C)=C/C=C/C(C)=C/C(=O)Nc2ccc(O[C@@H]3O[C@H](C(=O)O)[C@@H](O)[C@H](O)[C@H]3O)cc2)C(C)(C)CCC1
Description: Inhibition of β-glucuronidase mediated hydrolysis of 4-HPR-O-glucuronide. The data set is classed as biochemical. As to conditions: other: 4-HPR-O-glucuronide as substrate. An excerpt: Chem. Soc., (1954), 76, 4872-4877.

“Also recorded” adds a separate entry of the source. Read-outs that look alike come from different tables or passages of the source.

As to `CC1=C(/C=C/C(C)=C/C=C/C(C)=C/C(=O)NC2O[C@H](C(=O)O)[C@@H](O)[C@H](O)[C@H]2O)C(C)(C)CCC1` (stereo partly drawn) [1-(D-glucopyranosyluronosyl) retinamide], in data set [1], the acid stability entry is recorded as “remained intact”. For the same molecule, the “hydrolysis by β-glucuronidase within twenty minutes” value on β-glucuronidase is given as “remained intact”. Also, in data set [2], the “effect on DMBA-induced mammary tumor development, in words” value was “significantly prolonged the latency period of mammary cancer; also recorded: tumor induction was markedly delayed and reduced; also recorded: caused the largest reduction in multiple mammary tumors; also recorded: greater mammary tumor chemopreventive effect than does retinoic acid; also recorded: inhibit DMBA induced mammary tumor development”; the tumor latency came out at 64 days; the tumor incidents worked out at 50%; the tumor number/rat is reported as 0.83 tumors per rat. This molecule registered a Ki in data set [3] of 280 nM.

With `CC1=C(/C=C/C(C)=C/C=C/C(C)=C/C(=O)Nc2ccc(O)cc2)C(C)(C)CCC1` [Example 4-HPR, N-(4-hydroxyphenyl) retinamide, reference compound], the IC50 with MCF-7 cells (Assay 1) amounted to 2800 nM; in the data set on MCF-7 cells (Assay 2), 1500 nM; in the data set with MCF-7 cells (Assay 3), 33000 nM. The inhibition at 1 µM on mRARγ came out at 7%; at mRARα (1 μM drug, 5 nM [3H]RA), 18%; at mRARβ, 5%. Also, the cytotoxicity result in [4] was “significant cytotoxicity”. Besides, in data set [5], the “breast cancer chemopreventive activity combined with calcium glucarate” value is listed as “synergistically exerts an increased breast cancer chemopreventive activity”. Also, the cancer preventive activity entry with cancer is on record as “displays chemopreventive activity in breast cancer”.

`CC1=C(/C=C/C(C)=C/C=C/C(C)=C/C(=O)O[C@@H]2O[C@H](C(=O)O)[C@@H](O)[C@H](O)[C@H]2O)C(C)(C)CCC1` [RAG, retinoyl β-glucuronide, reference compound]: the degraded at 2 h in [1] (HPLC) is approximately 50%. For the same molecule, the “hydrolysis by β-glucuronidase within twenty minutes” value on β-glucuronidase is reported as “completely hydrolyzed”.

For the molecule `CC1=C(/C=C/C(C)=C/C=C/C(C)=C/C(=O)O)C(C)(C)CCC1` [retinoic acid, reference compound], the “reversal of metaplastic condition” value in data set [6] was “can reverse the metaplastic condition of hamster tracheal in vitamin A deficient epithelial tissue”. Further, the inhibition at 1 µM at mRARγ turned out to be 100%. In addition, the inhibition at 1 µM at mRARα is 100%. In data set [2], the tumor latency is 49 days, the tumor incidents came to 83% and the tumor number/rat was 1.17 tumors per rat. The cancer preventive activity entry in the data set with cancer is listed as “display cancer preventive activity”.

B1: β-glucuronidase (Homo sapiens) (protein)
chain: T1 sequence (P08236 23-651)
As to B1, the Km in data set [7] is 184.5 µM.
